According to patent US4547521A, “16-Methoxy-16-methyl prostaglandin E1 derivatives, a process for preparing them and their use as gastroprotective agents” (Gruppo Lepetit S.p.A., priority 1979, dated 1985):

Columns and labels:
gastric acid secretion = test: Inhibition of gastric acid secretion in dogs, histamine at fixed dose of 160 μg/kg/h, oral; format: in vivo, mongrel dogs; conditions: histamine fixed dose 160 μg/kg/h
Experimental: The compounds of the present invention are also potent inhibitors of the gastric secretion when they are administered to laboratory animals by the oral route. […] The gastric antisecretory properties of these compounds when administered per os were evaluated on the basis of their effectiveness in inhibiting the hyperacidity induced by histamine in dogs. Histamine, which is a potent stimulator of the acidic gastric secretion (see Bertaccini et al., Eur. Journ. Pharmacol., 28, 360, 1974), was administered intravenously by continuous infusion during the experiments.
A group of five mongrel dogs was used in the experiment. […]
To evaluate the gastric antisecretory oral activity of the compounds of the invention, they were administered by gavage into the main stomach at a given dosage, expressed as μg/kg/h, dissolved in 1 ml of physiological solution, 60 minutes before the secreting agent. […]
The compounds of the present invention are potent inhibitors of also gastric hypersecretion also when administered intravenously. […] The pH of the fluid emerging from a cannula in the pylorus is continuously recorded by means of a glass-electrode connected to a direct reading pH-meter and thence to a recorder. […]

[1] = tested on: gastric hypersecretion induced by histamine; test: Inhibition of histamine-induced gastric hypersecretion in anesthetized perfused-stomach rats (Ghosh and Schild), intravenous; format: in vivo; conditions: i.v., histamine 1.5 mg/kg/h
Experimental: The compounds of the present invention are potent inhibitors of also gastric hypersecretion also when administered intravenously. This has been confirmed by evaluating the effects, on gastric hypersecretion induced by histamine, produced by a single intravenous administration to anesthetized rats of the compounds of the present invention. The experiments were carried out essentially according to the methodology described by Ghosh and Schild in Brit. J. Pharm. (1958), 13, 54-61. According to this technique the rat is anesthetized with urethane and its stomach is perfused with a dilute sodium hydroxide solution (N/4000 NaOH at a rate of about 1 ml/min) by way of the oesophagus. The pH of the fluid emerging from a cannula in the pylorus is continuously recorded by means of a glass-electrode connected to a direct reading pH-meter and thence to a recorder. In passing through the stomach, the perfusate collects sufficient buffer to act as an approximately linear buffer system over the relevant range, so that the change in pH becomes a measure of acid secretion.
When the N/4000 NaOH solution is collected after having passed through the unstimulated stomach it gives an initial value of about 6-6.5 (pHunstimulated stomach). A secretory stimulant, histamine in the present case, is then administered intravenously by continuous infusion at a dose of 1.5 mg/kg/h. After a few minutes the pH begins to fall and after about 10 to 20 minutes the secretory effect reaches its maximum and the pH its lowest value (pHhistamine stimulated stomach) which, owing to the continuous infusion of histamine, remains constant. The compounds to be tested are then administered intravenously and the pH is continuously recorded. By considering the highest pH value recorded, which evidences the maximum antisecretory effect reached with the test compound (pHM.A.E.) and using the following equation [formula] the percent inhibition of gastric acid secretion may be easily calculated.

[2] = tested on: gastric ulcers caused by indomethacin; test: Cytoprotective activity: inhibition of gastric ulcers caused by indomethacin in rats, oral; format: in vivo; conditions: indomethacin i.p.
Experimental: More particularly, the cytoprotective activity of the compounds of the present invention was evaluated on the basis of their effectiveness in inhibiting the formation and reducing the severity of gastric ulcers in rats caused by the administration of a high dose of 1-(p-chlorobenzoyl)-5-methoxy-2-methyl-3-indolyl-acetic acid (indomethacin). The cytoprotective activity occurred at oral doses which are by far lower than those which cause inhibition of the gastric acid secretion. In these experiments the rats were deprived of food the day before the beginning of the experiments but water was given ad libitum. The compounds to be tested were administered by the oral route as a suspension in 0.5% aqueous methocel solution (5 animals/dose), while indomethacin was administered intraperitoneally at […] in the same vehicle. Another group of rats (controls) was administered only with the ulcerogenic agent. The cytoprotective properties of the compounds of this invention were then expressed as "percent inhibition of the ulcers with respect to controls", which can be easily calculated by the following ratio: [formula] wherein A.U.D.(controls) is the average ulceration degree of the stomachs of the controls and A.U.D.(treated animals) is the average ulceration degree of the stomachs of the animals which received both indomethacin and the compound to be tested.
The A.U.D.s are calculated according to the method described by Thuillier et al. Chim. Ther., 3, 53, 1968, by examining the stomachs of the laboratory animals for possible ulcerations and assigning a score from 0 to 4 which depends on the number and the severity of the observed ulcerations: 0 indicates absence of any ulceration on the gastric wall; 4 indicates perforating ulcerations. A single ulceration degree (S.U.D.) is then calculated for each single stomach. The sum of the S.U.D.s divided by the number of the animals affords the A.U.D. of the stomachs of each group of animals.

With `CCCCC(C)(OC)C(O)/C=C/[C@H]1[C@H](O)CC(=O)[C@@H]1CCCCCCC(=O)OC` (single isomer, unassigned) [Example 1F, 11α,15-dihydroxy-16-methoxy-16-methyl-9-oxo-prosta-13(E)-ene-1-oic acid methyl ester] the “block of gastric acid secretion” value (gastric acid secretion) was “about 60%”, the “% Inhibition of the acid gastric secretion” value (“% Inhibition” below) ([1]; 2.5 μg/kg) was 15% and the “% Inhibition” value ([1]; 10 μg/kg) was 63%. The “% Inhibition” value ([1]; 20 μg/kg) was 90%, the “% Inhibition” value ([1]; 50 μg/kg) was 100% and the “percent inhibition of the ulcers with respect to controls” value ([2]; 3 μg/kg (lowest dose tested)) was “about 43%”. The ED50 ([2]; Rattus norvegicus, calculated by extrapolation, read-out: ED50 (dose which provokes an inhibition of the ulcers with respect to controls of 50%)) was 6 µg/kg and the “cytoprotective activity (in words)” value [2] was “very active even at very low doses”.
